Reference: patent publication US10138232B2, “Naphthyridinedione derivatives” (NOVARTIS AG, priority 2014, dated 2018)

System: CFTR-Y122X (GFP-CFTR-Y122X-Renilla construct) in Hek293 cell lines
Assay: CFTR-Y122X assay (dual reporter readthrough, Renilla luminescence)
Type: cell-based
Details: Homo sapiens, compounds incubated 24 h, tested up to 100 μM; for AC50: nonsense mutation suppression in the CFTR-Y122X assay; for Emax: nonsense mutation suppression, 100% activity = 14 mM paromomycin, read-out: Amax
Source text: In particular, compounds of formula (I), (I′), (Ia), (Ia′) or (Ib) I act as nonsense mutation suppressors on frequent PTCs, e.g. on Y122X in the mRNA of the cystic fibrosis conductance regulator protein (CFTR). This can be determined in vitro, for example, using cell lines expressing GFP-CFTR-Y122X-Renilla constructs as described herein.
Activity of compounds of the present invention was examined in recombinant, dual reporter isogenic Hek293 cell lines (“CFTR-Y122X assay”). The engineered reporter constructs contained the 18 bp sequence strech corresponding to a common Y122X PTC mutation in CFTR class I mutant patients (see Sermet-Gaudelus, BMC Medicine, 2007, 5(5)). Instead of a tyrosine (Y) in position 122 of the CFTR protein a TGA stop codon interrupts the open reading frame (Y122X) of the corresponding mRNA. This TGA stop codon triplet (followed by the pyrimidine base cytosine) is permissive to aminoglycoside mediated translational readthrough which served as positive control for high throughput screening. A corresponding TAA stop codon variant and a wildtype non mutated construct was used for confirmation and counter screening. The CFTR sequence was sandwiched between an eGFP reporter, and a triple myc tag sequence fused to a full length Renilla reporter. All sequences, including an intron containing one positioned pre-eGFP (b-globin intron) were cloned in frame. The corresponding expression constructs were stably expressed in the isogenic HEK-R4 cell host (Invitrogen Incorp.) and selected by blasticidin resistance. The isogenic integration of the construct minimizes gene dose effects and improves assay reproducibility. Stably integrated single cell derived clones were selected and characterized for aminoglycoside mediated readthrough. […] Readthrough of Y122X accumulates an intracellular localized fusion protein approximately 65.5 kDa in size as controlled by western blot analysis and immunofluorescence using an anti-renilla antibody. The eGFP reporter pre-PTC mutation serves as visual control for genetic stability of the screening clones and minimizes protein degradation of small fusion protein amounts. In the assay, compound concentration was 10 μM. In miniaturized 1536 well format 2000 cells were dispensed in 4 μl/well and incubated for 24 h at 37° C., 5% CO2. 40 nl compounds were placed on the cells with control wells containing 1 ul Paramomycin and 14.4 mM final concentration. Compounds were incubated for 24 h. Renilla Glo substrate (2.5 ul) was added and plates were centrifuged and processed for luminescence measurement using various readers. Activity calculation was done using the equation: A1(%)=100*(S−NC)/(AC−NC) where AC, NC and S correspond to active controls (injection of Stimulation buffer=100% stimulation), neutral controls (buffer injection which Iloprost EC10) and screening samples (S). NC corresponds to 0% activity whereas AC is 100% activity (14 mM paromomycin). False positive artefacts were removed in confirmation and validation screening using the same assay format followed by counterscreening using the respective wildtype construct (w/o PTC mutation) cell model. Compounds were tested up to 100 μM compound concentration.

Compound | AC50 [µM] | Emax [%]
Cn1c2ccccc2c(=O)c2c(=O)n(-c3ccccc3)c(C3CCC3)cc21 [Example 1.2, 3-Cyclobutyl-5-methyl-2-phenylbenzo[b][1,6]naphthyridine-1,10(2H,5H)-dione] | 1 | 260
O=c1c2sccc2[nH]c2cc(C3CCC3)n(-c3ccccc3)c(=O)c12 [Example 1.35, 6-cyclobutyl-7-phenylthieno[3,2-b][1,6]naphthyridine-8,9(4H,7H)-dione] | 0.4 | 126
CC(C)c1cc2[nH]c3ccccc3c(=O)c2c(=O)n1-c1ccccc1 [Example 1.3, 3-isopropyl-2-phenylbenzo[b][1,6]naphthyridine-1,10(2H,5H)-dione] | 1.1 | 281
Cn1c2ccc(Cl)cc2c(=O)c2c(=O)n(-c3ccccc3)c(C3CCC3)cc21 [Example 1.42, 8-chloro-3-cyclobutyl-5-methyl-2-phenylbenzo[b][1,6]naphthyridine-1,10(2H,5H)-dione] | 3.9 | 134
COc1ccc2c(c1)c(=O)c1c(=O)n(-c3ccccc3)c(C(C)C)cc1n2C [Example 1.49] |  | 17
Cc1cc2c(=O)c3c(=O)n(-c4ccccc4)c(C(C)C)cc3n(C)c2s1 [Example 1.15, 7-isopropyl-2,9-dimethyl-6-phenylthieno[2,3-b][1,6]naphthyridine-4,5(6H,9H)-dione] | 5.5 | 224
COc1cccc2c(=O)c3c(=O)n(-c4ccccc4)c(C(C)C)cc3n(C)c12 [Example 1.43, 3-isopropyl-6-methoxy-5-methyl-2-phenylbenzo[b][1,6]naphthyridine-1,10(2H,5H)-dione] | 22 | 186
Cn1c2ccccc2c(=O)c2c(=O)n(-c3ccccn3)c(C3CCC3)cc21 [Example 2.6, 3-cyclobutyl-5-methyl-2-(pyridin-2-yl)benzo[b][1,6]naphthyridine-1,10(2H,5H)-dione] | 3.3 | 232
Cn1c2ccccc2c(=O)c2c(=O)n(C3CCCC3)c(C3CCC3)cc21 [Example 2.2, 3-cyclobutyl-2-cyclopentyl-5-methylbenzo[b][1,6]naphthyridine-1,10(2H,5H)-dione] | 2.1 | 262
CC(C)c1cc2[nH]c3ccccc3c(=O)c2c(=O)n1N1CCCCC1 [Example 2.13, 3-isopropyl-2-(piperidin-1-yl)benzo[b][1,6]naphthyridine-1,10(2H,5H)-dione] | 1.8 | 265
CC(C)c1cc2[nH]c3ccccc3c(=O)c2c(=O)n1N1CCCC1 [Example 2.11, 3-isopropyl-2-(pyrrolidin-1-yl)benzo[b][1,6]naphthyridine-1,10(2H,5H)-dione] | 0.9 | 
CC(C)c1cc2c(c(=O)c3ccsc3n2C)c(=O)n1-c1ccccc1 [Example 1.13, 7-isopropyl-9-methyl-6-phenylthieno[2,3-b][1,6]naphthyridine-4,5(6H,9H)-dione] | 8.6 | 445
O=c1c2ccccc2[nH]c2cc(C3CCC3)n(C3CCCC3)c(=O)c12 [Example 2.1, 3-cyclobutyl-2-cyclopentylbenzo[b][1,6]naphthyridine-1,10(2H,5H)-dione] | 0.5 | 229
Cc1cc2[nH]c3cc(C(C)C)n(-c4ccccc4)c(=O)c3c(=O)c2s1 [Example 1.18, 6-isopropyl-2-methyl-7-phenylthieno[3,2-b][1,6]naphthyridine-8,9(4H,7H)-dione] | 3.9 | 240
Cc1cc2c(=O)c3c(=O)n(-c4ccccc4)c(C4CCC4)cc3n(C)c2s1 [Example 1.31, 7-cyclobutyl-2,9-dimethyl-6-phenylthieno[2,3-b][1,6]naphthyridine-4,5(6H,9H)-dione] | 0.6 | 228
Cn1c2ccsc2c(=O)c2c(=O)n(-c3ccccc3)c(C3CCC3)cc21 [Example 1.34, 6-cyclobutyl-4-methyl-7-phenylthieno[3,2-b][1,6]naphthyridine-8,9(4H,7H)-dione] | 1 | 263

Compound | AC50 [µM] | Emax [%]
CC(C)c1c(Br)c2c(c(=O)c3ccccc3n2C)c(=O)n1-c1ccccc1 [Example 3.3, 4-bromo-3-isopropyl-5-methyl-2-phenylbenzo[b][1,6]naphthyridine-1,10(2H,5H)-dione] | 18.8 | 122
Cc1ccc2c(c1)c(=O)c1c(=O)n(-c3ccccc3)c(C3CCC3)cc1n2C [Example 1.38, 3-cyclobutyl-5,8-dimethyl-2-phenylbenzo[b][1,6]naphthyridine-1,10(2H,5H)-dione] | 2.3 | 215
CC(C)c1cc2c(c(=O)c3cc(Cl)ccc3n2C)c(=O)n1-c1ccccc1 [Example 1.8, 8-chloro-3-isopropyl-5-methyl-2-phenylbenzo[b][1,6]naphthyridine-1,10(2H,5H)-dione] | 14.8 | 307
CC(C)c1cc2c(c(=O)c3ccccc3n2C)c(=O)n1N1CCCCC1 [Example 2.14, 3-isopropyl-5-methyl-2-(piperidin-1-yl)benzo[b][1,6]naphthyridine-1,10(2H,5H)-dione] | 1.7 | 271
Cc1c(C)n(C)c2cc(C3CCC3)n(-c3ccccc3)c(=O)c2c1=O [Example 1.25, 7-cyclobutyl-1,2,3-trimethyl-6-phenyl-1,6-naphthyridine-4,5(1 H,6H)-dione] | 16.8 | 87
O=c1c2c([nH]c3cc(C4CCC4)n(-c4ccccc4)c(=O)c13)CCC2 [Example 1.26, 3-cyclobutyl-2-phenyl-5,6,7,8-tetrahydro-1H-cyclopenta[b][1,6]naphthyridine-1,9(2H)-dione] | 3.3 | 229
Cn1c2ccccc2c(=O)c2c(=O)n(N3CCCC3)c(C3CCC3)cc21 [Example 2.8, 3-cyclobutyl-5-methyl-2-(pyrrolidin-1-yl)benzo[b][1,6]naphthyridine-1,10(2H,5H)-dione] | 6.1 | 188
O=c1c2ccccc2[nH]c2cc(C3CCC3)n(-c3ccccn3)c(=O)c12 [Example 2.5, 3-cyclobutyl-2-(pyridin-2-yl)benzo[b][1,6]naphthyridine-1,10(2H,5H)-dione] | 2.7 | 217
CC(C)c1cc2[nH]c3c(c(=O)c2c(=O)n1-c1ccccc1)CCCC3 [Example 1.22, 3-isopropyl-2-phenyl-6,7,8,9-tetrahydrobenzo[b][1,6]naphthyridine-1,10(2H,5H)-dione] | 7.2 | 413
CC(C)c1cc2[nH]c3ccccc3c(=O)c2c(=O)n1-c1ccccn1 [Example 2.9, 3-isopropyl-2-(pyridin-2-yl)benzo[b][1,6]naphthyridine-1,10(2H,5H)-dione] | 4.2 | 198
CC(C)c1cc2[nH]c3ccsc3c(=O)c2c(=O)n1-c1ccccc1 [Example 1.16, 6-isopropyl-7-phenylthieno[3,2-b][1,6]naphthyridine-8,9(4H,7H)-dione] | 1.6 | 344
CC(C)c1cc2c(c(=O)c3cccc(O)c3n2C)c(=O)n1-c1ccccc1 [Example 1.52, 6-hydroxy-3-isopropyl-5-methyl-2-phenylbenzo[b][1,6]naphthyridine-1,10(2H,5H)-dione] | 21 | 49
COc1cccc2c(=O)c3c(=O)n(-c4ccccc4)c(C4CCC4)cc3[nH]c12 [Example 1.48, 3-cyclobutyl-6-methoxy-2-phenylbenzo[b][1,6]naphthyridine-1,10(2H,5H)-dione] | 1.8 | 227
O=c1c2ccsc2[nH]c2cc(C3CCC3)n(-c3ccccc3)c(=O)c12 [Example 1.32, 7-cyclobutyl-6-phenylthieno[2,3-b][1,6]naphthyridine-4,5(6H,9H)-dione] | 4.2 | 247
Cn1c2cc(C3CCC3)n(-c3ccccc3)c(=O)c2c(=O)c2ccsc21 [Example 1.29, 7-cyclobutyl-9-methyl-6-phenylthieno[2,3-b][1,6]naphthyridine-4,5(6H,9H)-dione] | 0.7 | 286
